Test results taken from EP0315019A2, “Fluoromethoxyphenyl-dihydropyridines, process for their preparation and their use in drugs” (BAYER AG, priority 1987, dated 1989).

Tested on: isolierter Meerschweinchen-Herzvorhöfe
Assay: Effect on contraction amplitude of isolated guinea pig heart atria
Settings: Wirkstoffkonzentration 10⁻³ g/l, read-out: Substanzeffekte auf die Kontraktionsamplitude, Änderung in %

SMILES: CCCCCCCCCCOC(=O)C1=C(C)NC(C)=C([N+](=O)[O-])C1c1ccccc1OC(F)F (racemic) [Beispiel 1, 4-(2-Difluormethoxyphenyl)-1,4-dihydro-2,6-dimethyl-3-nitro-pyridin-5-carbonsäure-decylester]
- activation at 1 µg/mL: 45%
